Data: patent US10787640B2, “Producing mesodermal cell types and methods of using the same” (The Board of Trustees of the Leland Stanford Junior …, priority 2015, dated 2020)

Columns and labels:
[1] = tested on: hESC-derived lateral mesoderm; assay: Lateral mesoderm patterning, qPCR; format: cell-based, human
Protocol: Subsequently, day 1 anterior primitive streak was briefly washed (DMEM/F12) and differentiated towards day 2 paraxial mesoderm for 24 hours (1 μM A-83-01+3 μM CHIR99021+250 nM LDN-193189+20 ng/mL FGF2). Separately, day 1 mid primitive streak was differentiated towards day 2 lateral mesoderm for 24 hours (1 μM A-83-01+30 ng/mL BMP4+1 μM C59; with 2 μM SB-505124 sometimes used instead of A-83-01).
C) To reveal the possible identity of non-cardiac mesoderm lineages that were contaminating cardiac mesoderm-containing cultures, NKX2.5-GFP hESCs were differentiated towards mid primitive streak (day 1) and were differentiated towards a heterogeneous population containing cardiac mesoderm (day 3) by treatment with SB-505124+BMP4+C59 (without FGF2) on days 2-3 of differentiation. FACS was performed on day 3 to purify either NKX2.5-GFP^+ or NKX2.5-GFP^− cells (top subpanels) which were sorted for qPCR (bottom subpanels). Gene expression was normalized to expression of a gene in the NKX2.5-GFP^+ fraction (dotted line). D) Timecourse of gene expression in hESCs differentiating towards mid primitive streak and lateral mesoderm, with treatment by SB-505124+BMP4+C59 on days 2-3 of differentiation. […] G) To assess whether a stabilized vitamin C analog (ascorbic acid-2-phosphate) (AA2P) enhanced cardiac mesoderm differentiation into cardiomyocytes, day 4 hESC-derived cardiac mesoderm was exposed to BMP4 (30 ng/mL)+XAV939 (1 μM) for 48 hours in the presence or absence of 200 μg/mL AA2P and qPCR was conducted of day 6 populations; qPCR data were normalized such that expression values in the highest-expressing sample was normalized=1.0. […] J) In the mouse embryo, endocardium (progenitors to heart-affiliated endothelium) are marked by transient coexpression of pan-heart marker Nkx2.5 together with endothelial markers (Ferdous et al., 2009; Stanley et al., 2002).

lateral mesoderm = assay: Forelimb versus hindlimb progenitor specification from lateral mesoderm; format: cell-based, human; details: day 2-3, in the context of BMP and WNT activation
Protocol: Undifferentiated hPSCs (wild-type H7 as well as TBX5-Venus V19-2 H9 hESCs) were maintained in mTeSR1 media on Geltrex-coated plates. As described, they were differentiated into mid primitive streak for 24 hours (D0-1; 30 ng/mL Activin+40 ng/mL BMP4+6 μM CHIR99021+20 ng/mL FGF2+100 nM PIK90) and subsequently differentiated into lateral mesoderm (D1-2; 1 μM A-83-01+30 ng/mL BMP4+1 μM C59), with the inclusion of 50 nM of TTNPB or 2 μM ATRA on D1-2 for trunk lateral mesoderm that was subsequently competent for forelimb differentiation.
Day 2 trunk lateral mesoderm was differentiated into day 3 forelimb progenitors (D2-3; 1 μM A-83-01+1 μM DMH1+3 μM CHIR99021). By contrast, day 2 non-trunk lateral mesoderm was differentiated into day 3 hindlimb progenitors (D2-3; 25 ng/mL Activin+1 μM DMH1+3 μM CHIR99021).

With `Cc1cnc(-c2cnc(NCCNc3ccc(C#N)cn3)nc2-c2ccc(Cl)cc2Cl)[nH]1` [CHIR99021, 6-[[2-[[4-(2,4-Dichlorophenyl)-5-(5-methyl-1H-imidazol-2-yl)-2-pyrimidinyl]amino]ethyl]amino]-3-pyridinecarbonitrile] as the molecule, how does the “lateral mesoderm fate (qPCR)” value ([1]; day 2 lateral mesoderm, SB-505124+BMP4 with CHIR99021 or C59, 24 hours) read?
Its value is “specified a posterior lateral mesoderm/forelimb bud fate (PRRX1)”.

And the “pan-lateral mesoderm marker FOXF1 expression” value ([1]; last 12 hrs C59 or 3 μM CHIR in addition to BS)?
The value was “not markedly changed”.

B1: Activin: TGFβ agonist (protein, UniProt P08476 311-426, looked up)
Inhibin beta A chain: GLECDGKVNICCKKQFFVSFKDIGWNDWIIAPSGYHANYCEGECPSHIAGTSGSSLSFHSTVINHYRMRGHSPFANLKSCCVPTKLRPMSMLYYDDGQNIIKKDIQNMIVEECGCS
modifications: Inhibin beta A chain
notes: TGFβ agonist
For B1, which “hindlimb transcription factors TBX4 and PITX1 expression” value (lateral mesoderm) is on record?
The value was “strongly induced the hindlimb transcription factors TBX4 and PITX1”.
